Measurements: ChEMBL document CHEMBL3044789, “Comparing weed and crop seedling response to pre-emergence pendimethalin application in Corchorus olitorius and Abelmoschus esculentus” (Crop Prot, 2006)

Columns and labels:
Corchorus olitorius [1] = assay: Phytotoxicity in Corchorus olitorius assessed as seedling injury at 0.66 kg a.i/ha applied as solution after 7 weeks relative to control; format: organism-based; conditions: in vivo, other, 1176 h
Commelina diffusa [2] = assay: Herbicidal activity against Commelina diffusa in Corchorus olitorius plots assessed as minor weed growth at 0.66 kg a.i/ha after 2 weeks; format: functional
[3] = test system: Rottboellia cochinchinensis; assay: Herbicidal activity against Rottboellia cochinchinensis in Corchorus olitorius plots assessed as weed cover at 0.33 kg a.i/ha after 7 weeks (reference value: 1.7 +/- 0.56 %); format: functional
Euphorbia heterophylla = assay: Herbicidal activity against Euphorbia heterophylla in Abelmoschus esculentus plots assessed as major weed growth at 0.66 kg a.i/ha after 2 weeks; format: functional
Ageratum conyzoides = assay: Herbicidal activity against Ageratum conyzoides in Corchorus olitorius plots assessed as weed cover at 0.33 kg a.i/ha after 2 weeks (reference value: 81.7 +/- 0.43 %); format: functional
Abelmoschus esculentus [4] = assay: Phytotoxicity in Abelmoschus esculentus assessed as root length at 0.99 kg a.i/ha applied as solution after 7 weeks (reference value: 23 +/- 0.34 mm); format: organism-based; conditions: in vivo, other, 1176 h
Commelina diffusa [5] = assay: Herbicidal activity against Commelina diffusa in Abelmoschus esculentus plots assessed as minor weed growth at 0.66 kg a.i/ha after 2 weeks; format: functional
Abelmoschus esculentus [6] = assay: Phytotoxicity in Abelmoschus esculentus assessed as root length at 0.66 kg a.i/ha applied as solution after 7 weeks (reference value: 23 +/- 0.34 mm); format: organism-based; conditions: in vivo, other, 1176 h
Synedrella nodiflora [7] = assay: Herbicidal activity against Synedrella nodiflora in Abelmoschus esculentus plots assessed as weed cover at 0.66 kg a.i/ha after 4 weeks (reference value: 22.6 +/- 0.49 %); format: functional
Corchorus olitorius [8] = assay: Phytotoxicity in Corchorus olitorius assessed as root length at 0.66 kg a.i/ha applied as solution after 7 weeks (reference value: 14.3 +/- 1.06 mm); format: organism-based; conditions: in vivo, other, 1176 h
Synedrella nodiflora [9] = assay: Herbicidal activity against Synedrella nodiflora in Abelmoschus esculentus plots assessed as weed recovery at 0.66 kg a.i/ha after 2 weeks (reference value: 60.1 +/- 0.46 %); format: functional
Abelmoschus esculentus [10] = assay: Phytotoxicity in Abelmoschus esculentus assessed as shoot length at 0.66 kg a.i/ha applied as solution after 7 weeks (reference value: 28.7 +/- 0.34 mm); format: organism-based; conditions: in vivo, other, 1176 h

`CCC(CC)Nc1c([N+](=O)[O-])cc(C)c(C)c1[N+](=O)[O-]` [PENDIMETHALIN] was tested, and the Activity (Corchorus olitorius [1]) was 31.7%, the Activity (Commelina diffusa [2]) was 1 /m2 and the Activity [3] was 100%. The Activity (Euphorbia heterophylla) was 31 /m2, the Activity (Ageratum conyzoides) was 63.3% and the Activity (Abelmoschus esculentus [4]) was 11.8 mm. The Activity (Commelina diffusa [5]) was 1 /m2, the Activity (Abelmoschus esculentus [6]) was 11.8 mm and the Activity (Synedrella nodiflora [7]) was 47.9%. It also gave an Activity (Corchorus olitorius [8]) of 2.6 mm, an Activity (Synedrella nodiflora [9]) of 47.9% and an Activity (Abelmoschus esculentus [10]) of 14.7 mm.
